Assay: xn = mol fraction of the nth substance listed
Settings: 96.7 kPa

CS(C)=O + CC(=O)[O-].CCCC[n+]1ccn(C)c1
x2 = 0
Settings	viscosity [mPa·s]
303.15 K	1.8
308.15 K	1.665
313.15 K	1.529
318.15 K	1.407
323.15 K	1.304
328.15 K	1.211
333.15 K	1.127
343.15 K	0.989
348.15 K	0.931

CC(=O)[O-].CCCC[n+]1ccn(C)c1 + CS(C)=O
viscosity [mPa·s]
Settings	303.15 K	308.15 K	313.15 K	318.15 K	323.15 K	328.15 K	333.15 K	338.15 K	343.15 K	348.15 K
x1 = 0.21	6.44	–	4.98	–	3.81	3.39	3.08	2.77	–	2.3
x1 = 0.285	9.15	7.85	6.63	5.91	–	–	–	3.69	3.3	3.01
x1 = 0.369	13.34	11.31	9.67	8.25	7.12	6.3	5.48	4.89	–	3.97
x1 = 0.478	22.7	18	14.83	12.54	10.64	9.15	7.97	6.92	6.06	5.44
x1 = 0.606	51.5	39.2	30.3	–	19.2	–	12.9	10.5	8.81	7.34
x1 = 0.789	98.8	74.1	56.1	42.7	33.2	26.7	21.7	–	15.07	12.69
x1 = 0.884	131.1	96.5	75.2	–	47.5	39	32.8	28.1	–	–
x1 = 1	253	180.6	133.1	102	79.4	62.1	50.2	40.7	–	28.4
